Results on 2 compounds are retold here after BindingDB's records for doi:10.1016/j.bmcl.2013.03.113 (Vanderbilt University Medical Center, 2013).

Structures are written as SMILES.

Usually IC50 stands for the point on the concentration scale where inhibition reaches its midpoint. Read a high IC50 as lower potency.

The target in the assay is T1, Bone morphogenetic protein 4 (Mus musculus, UniProt P21275).
T1 sequence (P21275 whole entry): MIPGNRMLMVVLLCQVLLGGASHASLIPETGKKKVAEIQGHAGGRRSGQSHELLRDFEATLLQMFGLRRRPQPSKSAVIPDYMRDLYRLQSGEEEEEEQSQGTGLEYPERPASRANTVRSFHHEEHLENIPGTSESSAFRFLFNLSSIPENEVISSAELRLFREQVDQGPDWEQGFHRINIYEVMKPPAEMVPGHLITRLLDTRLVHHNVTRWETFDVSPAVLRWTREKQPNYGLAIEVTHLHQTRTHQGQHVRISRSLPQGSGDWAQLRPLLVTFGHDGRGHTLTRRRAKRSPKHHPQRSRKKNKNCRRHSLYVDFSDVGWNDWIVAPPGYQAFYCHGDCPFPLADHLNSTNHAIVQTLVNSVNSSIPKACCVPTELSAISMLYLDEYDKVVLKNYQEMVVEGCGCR
Put plainly: Inhibition of BMP4 in mouse C2C12BRA cells after 14 hrs by luciferase reporter gene assay. For orientation: Reporter assays use an easily measured gene product as a stand-in for the process of interest.

`c1ccc2c(-c3cnn4cc(-c5ccc(N6CCOCC6)cc5)cnc34)csc2c1` had a 50% inhibitory concentration (IC50) of 418 nM. With `Clc1cc(-c2cnn3cc(-c4ccc(N5CCOCC5)cc4)cnc23)ccn1` the figure was 529 nM.
